Entries after “also recorded” stand apart in the source; their conditions may differ.

For one experiment, the target named is CB1 receptor (Mus musculus, UniProt P47746). Kind of experiment: Tetrad test: attenuation of central effects of Δ^9-THC. The experiment is classed as in vivo. To be noted: 10 mg/kg oral, ICR mice.
Experiment [1] concerns the target T1, human CB1 (Homo sapiens, UniProt P21554). Kind of experiment: [3H]CP55940 radioligand displacement at CB1, membranes of CHO-K1 cells. The experiment is classed as binding. To be noted: ratio of Ki values. Background: Displacement assays read how much labelled ligand stays bound in the presence of the test substance.
Experiment [2] addresses T1, human CB1. Kind of experiment: CB1 calcium mobilization assay, antagonist apparent affinity. The experiment is classed as cell-based. On the technique in general: Calcium flux is commonly read through the fluorescence of an indicator in the cells.

T1 sequence (P21554 whole entry): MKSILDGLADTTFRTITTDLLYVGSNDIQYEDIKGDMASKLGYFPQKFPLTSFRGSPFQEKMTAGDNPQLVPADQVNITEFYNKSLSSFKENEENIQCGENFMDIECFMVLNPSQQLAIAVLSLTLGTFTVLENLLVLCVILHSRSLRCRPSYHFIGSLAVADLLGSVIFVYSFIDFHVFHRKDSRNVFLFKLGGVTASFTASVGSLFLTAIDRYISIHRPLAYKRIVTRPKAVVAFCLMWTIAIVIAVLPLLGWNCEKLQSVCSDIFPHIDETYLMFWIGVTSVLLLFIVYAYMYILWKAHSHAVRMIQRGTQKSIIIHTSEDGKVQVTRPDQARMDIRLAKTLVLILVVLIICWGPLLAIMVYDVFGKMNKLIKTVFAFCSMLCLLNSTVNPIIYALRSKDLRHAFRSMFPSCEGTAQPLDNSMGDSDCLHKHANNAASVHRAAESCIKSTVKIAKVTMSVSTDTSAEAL
Chain of CB1 receptor (P47746 whole entry): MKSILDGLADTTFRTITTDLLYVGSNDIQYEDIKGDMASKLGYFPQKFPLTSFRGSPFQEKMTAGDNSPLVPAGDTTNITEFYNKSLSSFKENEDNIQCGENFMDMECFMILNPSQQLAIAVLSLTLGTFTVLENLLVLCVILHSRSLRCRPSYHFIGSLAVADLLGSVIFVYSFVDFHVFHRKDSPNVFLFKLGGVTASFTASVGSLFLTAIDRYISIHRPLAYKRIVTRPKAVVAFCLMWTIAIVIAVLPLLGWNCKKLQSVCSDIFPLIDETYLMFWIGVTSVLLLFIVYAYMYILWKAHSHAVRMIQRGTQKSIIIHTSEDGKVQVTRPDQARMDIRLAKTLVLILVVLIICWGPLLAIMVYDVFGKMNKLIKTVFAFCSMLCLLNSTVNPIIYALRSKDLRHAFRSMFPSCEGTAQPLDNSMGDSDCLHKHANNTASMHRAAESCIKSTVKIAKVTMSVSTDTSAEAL

Take `CCCCC(=O)NC1CCN(c2ncnc3c2nc(-c2ccccc2Cl)n3-c2ccc(Cl)cc2)CC1` [Compound 9, N-{1-[8-(2-Chlorophenyl)-9-(4-chlorophenyl)-9H-purin-6-yl]piperidin-4-yl}pentanamide]: the “Reversal of the cannabimimetic effects of Δ^9-THC (tetrad)” value at CB1 receptor (30 min before 30 mg/kg i.v. Δ^9-THC) is recorded as “without efficacy; also recorded: did not reverse any of the cannabimimetic effects of Δ^9-THC; also recorded: could not be reversed”. Besides, at CB1 receptor (in combination with vehicle), the “Effects in tetrad tests by itself” value is “did not produce any significant effects”. Further, the “Selectivity for CB1 over CB2” value at human CB1 [1] is reported as above 50 fold. As for `O=C(CCN1CCCCC1)NC1CCN(c2ncnc3c2nc(-c2ccccc2Cl)n3-c2ccc(Cl)cc2)CC1` [Compound 15, N-{1-[8-(2-Chlorophenyl)-9-(4-chlorophenyl)-9H-purin-6-yl]piperidin-4-yl}-3-(piperidin-1-yl)propanamide], on human CB1 [2], the antagonist dissociation constant (Kb) (commonly the equilibrium dissociation constant of an antagonist, usually derived from a functional assay) worked out at 0.789 µM. Turning to `O=S(=O)(NC1CCN(c2ncnc3c2nc(-c2ccccc2Cl)n3-c2ccc(Cl)cc2)CC1)C(F)(F)F` [Compound 18, N-{1-[8-(2-chlorophenyl)-9-(4-chlorophenyl)-9H-purin-6-yl]piperidin-4-yl,}-1,1,1-trifluoromethanesulfonamide], the “Activity in the calcium mobilization assay” value on human CB1 [2] is recorded as “very active”. “N-{1-[8-(2-chlorophenyl)-9-(4-chlorophenyl)-9H-purin-6-yl]piperidin-4-yl}aminosulfonamide [Compound 17]”: the “Activity in the calcium mobilization assay” value at human CB1 [2] is listed as “did not have significant activity”.

(Values after publication PMC4281022 (Journal of medicinal chemistry, 2013).)
